Results from patent US20250263370A1 (Tay Therapeutics Limited, priority 2022, published 2025).
Values joined by “and” are separate entries in the source; they are usually repeats but may differ in a detail not shown here. Identical values can stand only once. “Also recorded” adds a separate entry of the source.

Tested on: collagen-induced arthritis
Test: Collagen-induced arthritis (CIA) model in rats: body weight, paw volume, clinical scores, clinical observations
Conditions: CIA rats
[1] = 3 mg/kg twice daily P.O. (group 5)
[2] = 3 mg/kg twice daily P.O. (group 5), day 13
[3] = 3 mg/kg twice daily P.O. (group 5), day 14
[4] = 3 mg/kg twice daily P.O. (group 5), days 18, 19 and 21
[5] = 10 mg/kg twice daily P.O. (group 6)
[6] = 10 mg/kg twice daily P.O. (group 6), day 12
[7] = 10 mg/kg twice daily P.O. (group 6), day 14

CNC(=O)c1[nH]c(C(=O)NC2CCC2)cc1O[C@@H](C)c1ccccc1 (stereo in doubt) [Example 101, N^5-cyclobutyl-N^2-methyl-3-(1-phenylethoxy)-1H-pyrrole-2,5-dicarboxamide]
day on which paw volume noticeably increased [1]: ~14 days | effect on hind paw volume [1]: less effective at preventing an increase in paw volume over the course of the study; also recorded: performed similarly to GSK620 | average overall clinical score at plateau (3 mg/kg twice daily P.O. (group 5), around day 18): 10 | animals exhibiting signs of disease (3 mg/kg twice daily P.O. (group 5), day 12): Three animals | animals exhibiting disease [2]: 5/8 | animals with a clinical score of 2 in one hind limb [2]: 1/8 | animals exhibiting disease [3]: all animals | animals with clinical scores of at least 2 in one or more hind limbs [3]: 2/8 | animals with a score of 4 in one hind limb and a score of 3 in the other hind limb [4]: 2/8 | animals with scores of 4 in each hind limb [4]: 6/8 | paw volume increase at plateau relative to day 0 (3 mg/kg twice daily P.O. (group 5), plateau at days 18-19): approximately 90% | Average animal paw volume percent change (3 mg/kg, Day 0, left hind paw (L)): 0.00% | Animal paw volume Day 0 L (3 mg/kg, Day 0, left paw, individual animals): 1.36 mL and 1.31 mL (2×) and 1.32 mL (2×) and 1.35 mL and 1.37 mL and 1.34 mL | Average animal paw volume percent change (3 mg/kg, Day 0, right hind paw (R)): 0.00% | Animal paw volume Day 0 R (3 mg/kg, Day 0, right paw, individual animals): 1.38 mL and 1.32 mL (2×) and 1.34 mL (3×) and 1.31 mL and 1.35 mL | Average animal paw volume percent change (3 mg/kg, Day 6, left hind paw (L)): 1.09% | Animal paw volume Day 6 L (3 mg/kg, Day 6, left paw, individual animals): 1.36 mL (2×) and 1.32 mL (2×) and 1.40 mL and 1.31 mL and 1.37 mL and 1.35 mL | Average animal paw volume percent change (3 mg/kg, Day 6, right hind paw (R)): 1.23% | Animal paw volume Day 6 R (3 mg/kg, Day 6, right paw, individual animals): 1.38 mL and 1.33 mL and 1.35 mL and 1.40 mL and 1.36 mL (2×) and 1.32 mL and 1.34 mL | Average animal paw volume percent change (3 mg/kg, Day 12, left hind paw (L)): 5.80% | Animal paw volume Day 12 L (3 mg/kg, Day 12, left paw, individual animals): 1.38 mL and 1.32 mL and 1.39 mL (3×) and 1.42 mL and 1.37 mL and 1.63 mL | Average animal paw volume percent change (3 mg/kg, Day 12, right hind paw (R)): 5.01% | Animal paw volume Day 12 R (3 mg/kg, Day 12, right paw, individual animals): 1.40 mL and 1.43 mL and 1.38 mL (2×) and 1.46 mL and 1.44 mL and 1.36 mL and 1.39 mL | Average animal paw volume percent change (3 mg/kg, Day 13, left hind paw (L)): 15.11% | Animal paw volume Day 13 L (3 mg/kg, Day 13, left paw, individual animals): 1.62 mL and 1.53 mL and 1.50 mL and 1.54 mL and 1.38 mL and 1.86 mL and 1.43 mL and 1.41 mL | Average animal paw volume percent change (3 mg/kg, Day 13, right hind paw (R)): 9.28% | Animal paw volume Day 13 R (3 mg/kg, Day 13, right paw, individual animals): 1.42 mL (2×) and 1.50 mL and 1.41 mL and 1.47 mL and 1.40 mL and 1.68 mL and 1.39 mL | Average animal paw volume percent change (3 mg/kg, Day 14, left hind paw (L)): 27.04% | Animal paw volume Day 14 L (3 mg/kg, Day 14, left paw, individual animals): 1.67 mL and 1.68 mL (2×) and 1.64 mL and 1.59 mL and 2.01 mL and 1.63 mL (2×) | Average animal paw volume percent change (3 mg/kg, Day 14, right hind paw (R)): 19.52% | Animal paw volume Day 14 R (3 mg/kg, Day 14, right paw, individual animals): 1.57 mL and 1.52 mL and 1.41 mL and 1.87 mL and 1.50 mL and 2.04 mL and 1.43 mL (2×) | Average animal paw volume percent change (3 mg/kg, Day 15, left hind paw (L)): 39.96% | Animal paw volume Day 15 L (3 mg/kg, Day 15, left paw, individual animals): 1.72 mL and 1.70 mL and 1.91 mL and 1.65 mL and 2.44 mL and 2.06 mL and 1.74 mL and 1.68 mL | Average animal paw volume percent change (3 mg/kg, Day 15, right hind paw (R)): 43.85% | Animal paw volume Day 15 R (3 mg/kg, Day 15, right paw, individual animals): 1.66 mL and 1.62 mL and 2.31 mL and 1.71 mL and 2.41 mL and 2.02 mL and 1.99 mL and 1.64 mL | Average animal paw volume percent change (3 mg/kg, Day 18, left hind paw (L)): 87.19% | Animal paw volume Day 18 L (3 mg/kg, Day 18, left paw, individual animals): 2.40 mL and 2.65 mL and 2.62 mL and 2.44 mL (2×) and 2.70 mL and 2.47 mL and 2.22 mL | Average animal paw volume percent change (3 mg/kg, Day 18, right hind paw (R)): 89.41% | Animal paw volume Day 18 R (3 mg/kg, Day 18, right paw, individual animals): 2.21 mL and 2.56 mL and 2.65 mL and 2.37 mL and 2.70 mL and 2.55 mL and 2.50 mL and 2.71 mL | Average animal paw volume percent change (3 mg/kg, Day 19, left hind paw (L)): 98.39% | Animal paw volume Day 19 L (3 mg/kg, Day 19, left paw, individual animals): 2.51 mL and 2.85 mL and 2.75 mL and 2.50 mL and 2.71 mL and 2.60 mL and 2.43 mL and 2.79 mL | Average animal paw volume percent change (3 mg/kg, Day 19, right hind paw (R)): 94.99% | Animal paw volume Day 19 R (3 mg/kg, Day 19, right paw, individual animals): 2.21 mL and 2.91 mL and 2.63 mL and 2.37 mL and 2.68 mL and 2.80 mL and 2.49 mL and 2.76 mL | Average animal paw volume percent change (3 mg/kg, Day 21, left hind paw (L)): 100.54% | Animal paw volume Day 21 L (3 mg/kg, Day 21, left paw, individual animals): 2.49 mL and 3.01 mL and 2.76 mL and 2.51 mL and 2.68 mL and 2.64 mL and 2.41 mL and 2.87 mL | Average animal paw volume percent change (3 mg/kg, Day 21, right hind paw (R)): 94.48% | Animal paw volume Day 21 R (3 mg/kg, Day 21, right paw, individual animals): 2.23 mL and 2.91 mL and 2.61 mL and 2.34 mL and 2.69 mL and 2.77 mL (2×) and 2.47 mL | average overall clinical score at plateau [5]: 7 | day on which paw volume increased [5]: ~14 days | effect on hind paw volume [5]: Paw volume increases were delayed; also recorded: more effective at controlling paw volume | paw volume relative to CIA + vehicle (group 2) [5]: significantly decreased relative to group 2 on days 19 and 21 (both paws, p<0.05) | animals exhibiting signs of disease [6]: 3/8 | animals with a score of 2 in one hind limb [6]: one animal | animals exhibiting disease (10 mg/kg twice daily P.O. (group 6), day 13): 4/8 | animals with a score of 3 in one or more hind limbs [7]: 3/8 | animals with a score of 4 in a hind limb [7]: 1/8 | animals exhibiting disease (10 mg/kg twice daily P.O. (group 6), day 15): 7/8 | animals with scores of 4 in one or more hind limbs (10 mg/kg twice daily P.O. (group 6), day 18): 4/8 | animals exhibiting disease (10 mg/kg twice daily P.O. (group 6), day 19): all animals
